# Measured values as given in PMC11323223 (Bioorganic chemistry, 2022).
# Like-named read-outs stand apart in the source and are kept apart here.
# Columns and labels:
# [1] = test system: CFA-induced thermal hyperalgesia; test: CFA-induced thermal hyperalgesia; format: in vivo; conditions: 20 mg/kg, i.p., mice, 90 min after administration, n = 6
# FABP3 [2] = molecular target: T1, FABP3 (Homo sapiens, UniProt P05413); test: Fluorescence displacement binding assay; conditions: for Ki: read-out: FABP3 Ki, average ± S.E. of at least three independent experiments
# T1 sequence (P05413 whole entry): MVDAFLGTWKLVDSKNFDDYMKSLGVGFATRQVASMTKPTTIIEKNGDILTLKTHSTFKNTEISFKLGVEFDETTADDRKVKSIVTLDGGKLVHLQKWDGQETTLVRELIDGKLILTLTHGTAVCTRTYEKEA
# FABP7 [3] = molecular target: T2, FABP7 (Homo sapiens, UniProt O15540); test: Fluorescence displacement binding assay; conditions: for Ki: read-out: FABP7 Ki, average ± S.E. of at least three independent experiments; for FABP7/3 SI (selectivity index): FABP7 over FABP3, from Ki values; for FABP7/5 SI (selectivity index): FABP7 over FABP5, from Ki values
# T2 sequence (O15540 whole entry): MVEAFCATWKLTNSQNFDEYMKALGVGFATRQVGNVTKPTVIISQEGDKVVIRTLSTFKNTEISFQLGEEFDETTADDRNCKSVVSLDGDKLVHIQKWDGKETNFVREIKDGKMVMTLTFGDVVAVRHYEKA
# FABP5 = FABP5 (Homo sapiens, UniProt Q01469); test: Fluorescence displacement binding assay; conditions: for FABP5/3 SI (selectivity index): FABP5 over FABP3, from Ki values; for FABP5/7 SI (selectivity index): FABP5 over FABP7, from Ki values; for Ki: read-out: FABP5 Ki, average ± S.E. of at least three independent experiments
# Sequence of FABP5 (Q01469 whole entry): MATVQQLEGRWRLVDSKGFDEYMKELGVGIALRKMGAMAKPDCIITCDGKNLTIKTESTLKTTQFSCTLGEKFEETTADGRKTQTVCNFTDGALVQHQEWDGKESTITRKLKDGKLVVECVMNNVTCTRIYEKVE
# FABP7 [4] = molecular target: T2, FABP7; conditions: read-out: FABP7 Ki; cited from earlier work
# FABP3 [5] = molecular target: T1, FABP3; conditions: read-out: FABP3 Ki; cited from earlier work
compound,measurement,setting,value
"COc1ccccc1C1C(C(=O)O)C(c2ccccc2OC)C1C(=O)OC1Cc2ccccc2C1 (stereo not drawn) [α-16, α-3-(2,3-Dihydro-1H-inden-2-yloxycarbonyl)-2,4-bis(2-methoxyphenyl)cyclobutane-1-carboxylic acid]",effect on thermal hyperalgesia,[1],full reversal of hyperalgesia
same,Ki,FABP3 [2],53800 ± 7280 nM
same,Ki,FABP7 [3],21800 ± 4220 nM
"COc1ccccc1C1C(C(=O)O)C(c2ccccc2OC)C1C(=O)Oc1cccc(-c2ccc(F)cc2)c1 (stereo not shown) [γ-13, γ-3-(4′-Fluoro-1,1′-biphenyl-3-yloxycarbonyl)-2,4-bis(2-methoxyphenyl)-cyclobutane-1-carboxylic acid]",Ki,FABP3 [2],6100 ± 1340 nM
same,Ki,FABP7 [3],3590 ± 240 nM
same,FABP5/3 SI (selectivity index),FABP5,3.4
same,FABP5/7 SI (selectivity index),FABP5,2.0
same,Ki,FABP5,1770 ± 20 nM
"O=C(O)C1C(c2ccccc2)C(C(=O)Oc2cccc(C3=CCOCC3)c2)C1c1ccccc1 (stereo not drawn) [α-21, α-3-(3-(3,6-Dihydro-2H-pyran-4-yl)phenoxycarbonyl)-2,4-diphenylcyclobutane-1-carboxylic acid]",Ki,FABP3 [2],67900 ± 8870 nM
same,FABP7/3 SI (selectivity index),FABP7 [3],81.8
same,FABP7/5 SI (selectivity index),FABP7 [3],2.1
same,Ki,FABP7 [3],830 ± 10 nM
same,FABP5/7 SI (selectivity index),FABP5,0.47
same,Ki,FABP5,1750 ± 70 nM
COc1ccccc1C1[C@H](C(=O)O)[C@H](c2ccccc2OC)[C@H]1C(=O)Oc1cccc2ccccc12 (stereo partly shown) [L2],Ki,FABP7 [4],670 ± 40 nM
same,Ki,FABP3 [5],690 ± 170 nM
"O=C1CCc2cc(-c3cccc(OC(=O)C4C(c5ccccc5)C(C(=O)O)C4c4ccccc4)c3)ccc2N1 (stereo not drawn) [α-10, α-3-(3-(2-Oxo-1,2,3,4-tetrahydroquinolin-6-yl)phenoxycarbonyl)-2,4-diphenylcyclobutane-1-carboxylic acid]",Ki,FABP3 [2],8110 ± 1670 nM
same,Ki,FABP7 [3],700 ± 30 nM
same,FABP5/3 SI (selectivity index),FABP5,11.0
same,FABP5/7 SI (selectivity index),FABP5,0.95
same,Ki,FABP5,740 ± 60 nM
COc1ccccc1C1[C@H](C(=O)O)[C@H](c2ccccc2OC)[C@H]1C(=O)OCC1c2ccccc2-c2ccccc21 (stereo partly shown) [L3],Ki,FABP7 [4],14300 ± 410 nM
same,Ki,FABP3 [5],25300 ± 4570 nM
"O=C(O)C1C(c2ccccc2)C(C(=O)Oc2cccc3ccccc23)C1c1ccccc1 (stereo not drawn) [L1, α-truxillic acid 1‑naphthyl ester]",Ki,FABP7 [4],450 ± 70 nM
same,Ki,FABP3 [5],2700 ± 420 nM
"O=C(O)C1C(c2ccccc2)C(C(=O)OCc2cccc3ccccc23)C1c1ccccc1 (stereo not shown) [ε-23, ε-3-(Naphthalen-1-ylmethoxycarbonyl)-2,4-diphenylcyclobutane-1-carboxylic acid]",Ki,FABP3 [2],7420 ± 1380 nM
same,Ki,FABP7 [3],860 ± 40 nM
same,Ki,FABP5,5080 ± 620 nM
"O=C(O)C1C(c2ccccc2)C(C(=O)Oc2cccc(-c3ccc4c(c3)OCCO4)c2)C1c1ccccc1 (stereo not shown) [ε-203, ε-3-(3-(2,3-Dihydrobenzo[b][1,4]dioxin-6-yl)phenoxycarbonyl)-2,4-diphenyl-cyclobutane-1-carboxylic acid]",Ki,FABP3 [2],7840 ± 700 nM
same,Ki,FABP7 [3],1490 ± 150 nM
same,Ki,FABP5,3150 ± 280 nM
O=C(O)C1C(c2ccccc2)C(C(=O)OCc2cccc3ccccc23)C1c1ccccc1 (stereo not drawn) [α-24],Ki,FABP3 [2],51200 ± 5710 nM
same,Ki,FABP7 [3],10200 ± 1420 nM
same,Ki,FABP5,2640 ± 10 nM
"COc1ccccc1C1C(C(=O)O)C(c2ccccc2OC)C1C(=O)Oc1cccc(-c2ccc3c(c2)OCCO3)c1 (stereo not shown) [γ-17, γ-3-(3-(2,3-Dihydrobenzo[b][1,4]dioxin-6-yl)phenoxycarbonyl)-2,4-bis(2-methoxyphenyl)cyclobutane-1-carboxylic acid]",Ki,FABP3 [2],8180 ± 2670 nM
same,Ki,FABP7 [3],5120 ± 320 nM
same,Ki,FABP5,3690 ± 650 nM
"COc1ccccc1C1C(C(=O)O)C(c2ccccc2OC)C1C(=O)Oc1ccc(OC)c2ccccc12 (stereo not shown) [γ-109, γ-3-(4-Methoxynaphthalen-1-yloxycarbonyl)-2,4-bis(2-methoxyphenyl)cyclobutane-1-carboxylic acid]",Ki,FABP3 [2],3500 ± 630 nM
same,FABP7/3 SI (selectivity index),FABP7 [3],7.4
same,FABP7/5 SI (selectivity index),FABP7 [3],56.6
same,Ki,FABP7 [3],470 ± 80 nM
same,Ki,FABP5,26600 ± 1880 nM
"COc1ccccc1C1C(C(=O)O)C(c2ccccc2OC)C1C(=O)Oc1ccccc1-c1ccc2c(c1)OCCO2 (stereo not drawn) [α-25, α-3-(2-(2,3-Dihydrobenzo[b][1,4]dioxin-6-yl)phenoxycarbonyl)-2,4-bis(2-methoxyphenyl)cyclobutane-1-carboxylic acid]",Ki,FABP3 [2],2290 ± 560 nM
same,FABP7/3 SI (selectivity index),FABP7 [3],3.4
same,FABP7/5 SI (selectivity index),FABP7 [3],4.2
same,Ki,FABP7 [3],670 ± 150 nM
same,Ki,FABP5,2810 ± 420 nM
COc1ccccc1C1C(C(=O)O)C(c2ccccc2OC)C1C(=O)Oc1cccc(-c2ccc(F)cc2)c1 (stereo not drawn) [α-13],Ki,FABP3 [2],2280 ± 360 nM
same,Ki,FABP7 [3],990 ± 530 nM
same,Ki,FABP5,1030 ± 110 nM
"COc1ccccc1C1C(C(=O)O)C(c2ccccc2OC)C1C(=O)Oc1cccc(-c2ccc(C#N)cc2)c1 (stereo not drawn) [α-20, α-3-(4′-Cyano-1,1′-biphenyl-3-yloxycarbonyl)-2,4-bis(2-methoxyphenyl)cyclobutane-1-carboxylic acid]",Ki,FABP3 [2],4640 ± 40 nM
same,Ki,FABP7 [3],3160 ± 430 nM
same,Ki,FABP5,1740 ± 80 nM
"O=C(O)C1C(c2ccccc2)C(C(=O)Oc2ccccc2-c2ccc3c(c2)OCO3)C1c1ccccc1 (stereo not drawn) [α-11, α-3-(2-Benzo[d][1,3]dioxol-5-ylphenoxycarbonyl)-2,4-diphenylcyclobutane-1-carboxylic acid]",FABP3/7 SI (selectivity index),"FABP3 [2]; FABP3 over FABP7, from Ki values",0.28
same,Ki,FABP3 [2],1130 ± 150 nM
same,FABP7/3 SI (selectivity index),FABP7 [3],3.5
same,FABP7/5 SI (selectivity index),FABP7 [3],2.5
same,Ki,FABP7 [3],320 ± 130 nM
same,Ki,FABP5,790 ± 180 nM
"COc1ccccc1C1C(C(=O)O)C(c2ccccc2OC)C1C(=O)Oc1cccc(-c2cccc3c2OCCO3)c1 (stereo not shown) [γ-6, γ-3-(3-(2,3-Dihydrobenzo[b][1,4]dioxin-5-yl)phenoxycarbonyl)-2,4-bis(2-methoxyphenyl)cyclobutane-1-carboxylic acid]",Ki,FABP3 [2],6860 ± 70 nM
same,Ki,FABP7 [3],1780 ± 450 nM
same,FABP5/3 SI (selectivity index),FABP5,5.4
same,FABP5/7 SI (selectivity index),FABP5,1.4
same,Ki,FABP5,1260 ± 120 nM
